# Measurements: patent US20220185832A1, “CD73 INHIBITORS” (BioArdis LLC, priority 2019, published 2022)
# Columns and labels:
# [1] = biological target: T1, Cell surface CD73 of U87 MG human glioblastoma cells (Homo sapiens, UniProt P21589); assay: CD73 Cellular Assay; format: cell-based; details: 5000 cells per well, 30 μM AMP, PiColorLock phosphate detection in supernatant, read-out: Potency (IC50)
# T1 construct: Cell surface CD73 catalyzes the conversion of adenosine monophosphate (AMP) to adenosine and inorganic phosphate; endogenous in cells; host or cells: U87 MG human glioblastoma cells
# T1 sequence (P21589 27-549): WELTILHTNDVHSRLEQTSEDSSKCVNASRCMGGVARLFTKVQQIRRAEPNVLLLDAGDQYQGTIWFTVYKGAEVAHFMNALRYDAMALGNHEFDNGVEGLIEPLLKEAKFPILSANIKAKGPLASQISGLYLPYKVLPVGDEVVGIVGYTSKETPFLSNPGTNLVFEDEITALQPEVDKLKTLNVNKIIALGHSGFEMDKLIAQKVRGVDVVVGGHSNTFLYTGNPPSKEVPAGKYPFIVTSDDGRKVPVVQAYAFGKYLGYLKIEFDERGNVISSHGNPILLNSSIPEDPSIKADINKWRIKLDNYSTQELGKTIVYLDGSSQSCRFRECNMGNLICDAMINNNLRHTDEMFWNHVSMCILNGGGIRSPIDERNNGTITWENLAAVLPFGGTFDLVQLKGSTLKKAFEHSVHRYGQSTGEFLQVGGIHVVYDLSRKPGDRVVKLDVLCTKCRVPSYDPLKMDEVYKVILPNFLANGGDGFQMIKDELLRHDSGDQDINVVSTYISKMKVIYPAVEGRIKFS
# Description: Cell surface CD73 catalyzes the conversion of adenosine monophosphate (AMP) to adenosine and inorganic phosphate. U87 MG human glioblastoma cells express high level of CD73. Cells are treated with compounds in a 96-well assay plate and supernatants are collected into a 384-well detection plate. The concentration of inorganic phosphate (Pi) in the supernatants is determined using the phosphate detection reagent, PiColorLock™ (Innova Bioscience, Cat #303-0125) following the manufacturer's instructions.
# Briefly, on the day of the assay, U87 MG cells were harvested and resuspended in assay buffer which consisted of 20 mM HEPES, pH=7.4, 137 mM NaCl, 5.4 mM KCl, 1.3 mM CaCl2, 4.2 mM NaHCO3 and 0.1% glucose. To test the effect of compounds on cellular CD73 enzymatic activity, 500 nL/well of compounds dissolved in DMSO were added to a 96-well TC-treated microplate (Corning #3599). Next, 80 μL/well of U87 MG cells in assay buffer were added to assay plate. After 30 minutes of incubation in an atmosphere of 5% CO2 at 37° C., 20 μL/well of 150 μM AMP (Adenosine 5′-monophosphate monohydrate, Sigma, Cat #01930) in assay buffer was added to assay plate. Final assay conditions consisted of 5000 cells per well in 0.5% DMSO and 30 μM AMP substrate. After 50 minutes of incubation in an atmosphere of 5% CO2 at 37° C., 50 μL/well of supernatant was transferred to the 384-well detection plate (Corning® NBSTM 384 well plates, Cat #3640). Meanwhile “Gold mix” was prepared shortly before use by adding 1/100 volume of accelerator to the PiColorLock™ Gold reagent. 12 μL/well of the “Gold mix” was added to detection plate containing 50 μL/well of supernatant and incubated at 25° C. for 5 minutes. 5 μL/well stabilizer was added to the detection plate and incubated at 25° C. for 30 minutes. The absorbance at 635 nm was measured on a Spark 10M instrument (TECAN).
# The percent (%) inhibition at each concentration of a compound was calculated relative to the OD value in the Max and Min control wells contained within each assay plate. The Max control wells contained cells and substrate as 0% inhibition, and the Min control wells only contained cells as 100% inhibition. The concentrations and percent inhibition values for a test compound are plotted and the concentration of the compound required to achieve 50% inhibition (IC50) was determined with a four-parameter logistic dose response equation.
# [2] = biological target: T2, Recombinant Human 5′-Nucleotidase (CD73) (Homo sapiens, UniProt P21589); assay: CD73 Enzyme Assay; format: biochemical; details: 0.5 nM human CD73, 30 μM AMP, PiColorLock phosphate detection, OD 635 nm; read-out: Potency (IC50)
# T2 construct: CHO derived CD73 (Trp27-Lys547), with a C-terminal 6-His tag; 6-His (C); purchased R&D 5795-EN; host or cells: CHO
# T2 sequence (P21589 27-547): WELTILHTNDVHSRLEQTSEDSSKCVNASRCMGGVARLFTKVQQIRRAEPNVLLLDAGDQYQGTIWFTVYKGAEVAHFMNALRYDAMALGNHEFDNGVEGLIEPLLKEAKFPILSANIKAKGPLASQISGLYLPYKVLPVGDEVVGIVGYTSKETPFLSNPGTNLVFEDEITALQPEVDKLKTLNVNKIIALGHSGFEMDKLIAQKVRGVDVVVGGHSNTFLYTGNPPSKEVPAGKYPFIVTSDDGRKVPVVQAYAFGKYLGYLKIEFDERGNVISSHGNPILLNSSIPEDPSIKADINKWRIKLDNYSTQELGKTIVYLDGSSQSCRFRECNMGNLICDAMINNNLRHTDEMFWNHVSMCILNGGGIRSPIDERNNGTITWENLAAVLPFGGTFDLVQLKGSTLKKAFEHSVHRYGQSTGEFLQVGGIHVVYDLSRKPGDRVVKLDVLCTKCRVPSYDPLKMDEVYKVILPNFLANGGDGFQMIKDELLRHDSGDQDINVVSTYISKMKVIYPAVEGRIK
# Summary of the method: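 CHO-derived human CD73 (Trp27-Lys547, C-terminal His tag; 0.5 nM) preincubated with compound 15 min at 25° C in Tris pH 7.5 with MgCl2 and Tween-20. Reaction with 30 μM AMP ran 20 min at 37° C; released phosphate read by malachite green at 635 nm, IC50 from 4-parameter logistic fit.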
Structure (SMILES),IC50 [1] [nM],IC50 [2] [nM]
"O=P(O)(O)CP(=O)(O)OC[C@H]1O[C@@H](c2ccc3c(NCc4ccccc4)nc(Cl)nc3c2)[C@@H](F)[C@@H]1O [Compound 13, (((((2R,3R,4S,5S)-5-(4-(benzylamino)-2-chloroquinazolin-7-yl)-4-fluoro-3-hydroxytetrahydrofuran-2-yl)methoxy)(hydroxy)phosphoryl)methyl)phosphonic acid]",10 to 99,100 to 999
"O=P(O)(O)CP(=O)(O)OC[C@H]1O[C@@H](c2ccc3c(NC4CCCC4)ncnc3c2)[C@H](O)[C@@H]1O [Compound 46, [({[(2R,3S,4R,5S)-5-[4-(cyclopentylamino)quinazolin-7-yl]-3,4-dihydroxyoxolan-2-yl]methoxy}(hydroxy)phosphoryl)methyl]phosphonic acid]",> 1000,< 10
"O=P(O)(O)CP(=O)(O)OC[C@H]1O[C@@H](c2ccc3c(NCC4CCCC(O)C4)nc(Cl)nc3c2)[C@H](O)[C@@H]1O (stereo partly drawn) [Compound 28, (((((2R,3S,4R,5S)-5-(2-chloro-4-(((3-hydroxycyclohexyl)methyl)amino)quinazolin-7-yl)-3,4-dihydroxytetrahydrofuran-2-yl)methoxy)(hydroxy)phosphoryl)methyl)phosphonic acid]",100 to 999,< 10
"O=P(O)(O)CP(=O)(O)OC[C@H]1O[C@@H](c2ccc3c(NCC4CCC4)nc(Cl)nc3c2)[C@H](O)[C@@H]1O [Compound 8, (((((2R,3S,4R,5S)-5-(2-chloro-4-((cyclobutylmethyl)amino)quinazolin-7-yl)-3,4-dihydroxytetrahydrofuran-2-yl)methoxy)(hydroxy)phosphoryl)methyl)phosphonic acid]",< 10,< 10
"O=P(O)(O)CP(=O)(O)OC[C@H]1O[C@@H](c2ccc3c(NCC4CCCC4)nc(Cl)nc3c2)[C@H](O)[C@@H]1O [Compound 5, (((((2R,3S,4R,5S)-5-(2-chloro-4-((cyclopentylmethyl)amino)quinazolin-7-yl)-3,4-dihydroxytetrahydrofuran-2-yl)methoxy)(hydroxy)phosphoryl)methyl)phosphonic acid]",< 10,10 to 99
"O=P(O)(O)CP(=O)(O)OC[C@H]1O[C@@H](c2ccc3c(NCC4CC4)nc(Cl)nc3c2)[C@H](O)[C@@H]1O [Compound 9, (((((2R,3S,4R,5S)-5-(2-chloro-4-((cyclopropylmethyl)amino)quinazolin-7-yl)-3,4-dihydroxytetrahydrofuran-2-yl)methoxy)(hydroxy)phosphoryl)methyl)phosphonic acid]",< 10,10 to 99

# Continued, values first:
IC50 [1] [nM],IC50 [2] [nM],Structure (SMILES)
< 10,10 to 99,"O=P(O)(O)CP(=O)(O)OC[C@H]1O[C@@H](c2ccc3c(NCCc4ccccc4)nc(Cl)nc3c2)[C@H](O)[C@@H]1O [Compound 2, (((((2R,3S,4R,5S)-5-(2-chloro-4-(phenethylamino)quinazolin-7-yl)-3,4-dihydroxytetrahydrofuran-2-yl)methoxy)(hydroxy)phosphoryl)methyl)phosphonic acid]"
< 10,< 10,"O=P(O)(O)CP(=O)(O)OC[C@H]1O[C@@H](c2ccc3c(NCc4ccccc4Cl)nc(Cl)nc3c2)[C@H](O)[C@@H]1O [Compound 23, (((((2R,3S,4R,5S)-5-(2-chloro-4((2-chlorobenzyl)amino)quinazolin-7-yl)-3,4-dihydroxytetrahydrofuran-2-yl)methoxy)(hydroxy)phosphoryl)methyl)phosphonic acid]"
< 10,10 to 99,"O=P(O)(O)CP(=O)(O)OC[C@H]1O[C@@H](c2ccc3c(NC4CCC4)nc(Cl)nc3c2)[C@H](O)[C@@H]1O [Compound 7, (((((2R,3S,4R,5S)-5-(2-chloro-4-(cyclobutylamino)quinazolin-7-yl)-3,4-dihydroxytetrahydrofuran-2-yl)methoxy)(hydroxy)phosphoryl)methyl)phosphonic acid]"
